According to paper PMC7160231, “Identification and Immobilization of an Invertase With High Specific Activity and Sucrose Tolerance Ability of Gongronella sp. w5 for High Fructose Syrup Preparation” (Frontiers in Microbiology, 2020):

Legend:
[1] = test system: T1, CBM24DG-GspInv; experiment: initial rate, released glucose by glucose oxidase method, Michaelis-Menten fit; assay type: biochemical, Gongronella sp. w5; settings: 50 mM citrate-phosphate pH 5.0, 45°C, 1 mM-2 M sucrose; free (not immobilised) fusion enzyme
T1 construct: Clostridium thermocellum CBM24 fused to N-terminus of GspInv; secreted from K. pastoris GS115 (pPIC9K)
From the text: initial rate, released glucose by glucose oxidase method, Michaelis-Menten fit on CBM24DG-GspInv

[2] = test system: T2, GspInv; experiment: as above; assay type: biochemical, Gongronella sp. w5; settings: 50 mM citrate-phosphate pH 5.0, 45°C, 1 mM-2 M sucrose
T2 construct: secreted from Komagataella (Pichia) pastoris GS115 with alpha-factor signal of pPIC9K; cDNA 1,761 bp; primer-encoded N-terminus MVLADP, C-terminus FNRP; catalytic D46, D173, E251
From the text: initial rate, released glucose by glucose oxidase method, Michaelis-Menten fit on GspInv

- Km [1]: 10.3 ± 1.2 mM
- Km [2]: 8.7 ± 1.1 mM
Structure (SMILES): OC[C@H]1O[C@@](CO)(O[C@H]2O[C@H](CO)[C@@H](O)[C@H](O)[C@H]2O)[C@@H](O)[C@@H]1O [sucrose]
